These results are taken from patent US10221177B2 (HYDRA BIOSCIENCES, INC., priority 2014, dated 2019).

The structures appear in SMILES notation.

The target of one assay is human TRPA1 (Homo sapiens (Human), UniProt O75762). The assay is described as follows: In vitro inhibition of human TRPA1, whole cell patch configuration. The format is cell-based. As to conditions: current activation 10 μM AITC, tested concentrations 320 pM to 3.2 μM, read-out: hTRPA1 IC50. The method in brief: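 Whole-cell patch clamp, bath 150 mM NaCl, 10 mM HEPES, 1 mM EGTA, 3 mM MgCl2, pH 7.4 (sometimes 2 mM CaCl2, 1 mM MgCl2). Currents recorded continuously at −60 mV or by 400 ms ramps from −40 mV holding every 4 s; inward/outward currents taken at −80/80 mV, with controlled-temperature focal perfusion.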

Assay [1] concerns formalin-induced pain behaviors in the rat. The experiment in a line: Formalin-induced pain test (formalin model), duration of pain behaviors. The assay is classed as in vivo. As to conditions: solution in 4% DMSO, 5% Tween-80, 20% Cremophor EL, 71% water. The method in brief:
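Rats dosed orally with vehicle or compound (solutions with DMSO, Solutol, Labrasol, Tween-80, Cremophor EL, or methylcellulose suspensions) one hour before intraplantar injection of 50 μL 3% formalin into hind paw. Duration of pain behaviors counted by blinded observer; Phase I covers 0-5 min; comparison to vehicle.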

The subject of assay [2] is CFA-induced cold hypersensitivity of the hind paw. The experiment in a line: CFA-induced pain test, cold hypersensitivity (cold plate paw withdrawal latency). The format is in vivo. The settings on record: cold plate 1° C., solution in 4% DMSO, 5% Tween-80, 20% Cremophor EL, and 71% water; for Average PWL Post-Treatment / PWL Change: 1-2 hour pre-treatment; for Average PWL Post-CFA: baseline before dosing. The procedure:
Embodiments of the invention may be efficacious in the treatment of inflammatory pain. Compounds of the invention were tested by the CFA-induced pain test method. Compounds were formulated as solutions in water with various solvents and excipients including dimethyl sulfoxide (DMSO), polyethylene glycol (15)-hydroxystearate (Solutol®, Sigma-Aldrich), caprylocaproyl macrogol-8 glyceride (Labrasol®, Sigma-Aldrich), polysorbate-80 (Tween®-80, Sigma-Aldrich), and polyoxyl 35 castor oil (Cremophor® EL, BASF Corp.); or suspensions in methylcellulose as indicated in Table 3 for oral delivery. Briefly, the hind paw was sensitized to cold temperature (allodynic) by administering 0.1 mL of Complete Freund's Adjuvant (CFA) to the right hind paw. Three days later, the time taken for the animal to lift its CFA-injected paw was recorded compared to its un-injected normal left hind paw. […] To avoid tissue damage the maximum cut-off time was 5 minutes. Animals that were allodynic (average PWL to the first three pain behaviors <150 seconds for the CFA-injected hind paw: ˜≥50% difference between the normal and CFA-injected paw) were included in the study and subsequently randomized across treatment groups. The following day, the animals were dosed orally under blinded conditions. Following the 1-2 hour pre-treatment time, the post-dose PWL readings were again taken. The efficacy of the drug treatment was assessed by comparing the PWL in the drug treatment animals to those animals that receive the vehicle. P values, when indicated, indicate significance compared Vehicle.

The mark [3] stands for this setting: 1 mg/kg PO one hour prior to formalin.
Setting [4] is: 3 mg/kg PO one hour prior to formalin.
Where [5] appears, read: 10 mg/kg PO one hour prior to formalin.

human TRPA1, sequence (O75762 whole entry, the tested form may be a part): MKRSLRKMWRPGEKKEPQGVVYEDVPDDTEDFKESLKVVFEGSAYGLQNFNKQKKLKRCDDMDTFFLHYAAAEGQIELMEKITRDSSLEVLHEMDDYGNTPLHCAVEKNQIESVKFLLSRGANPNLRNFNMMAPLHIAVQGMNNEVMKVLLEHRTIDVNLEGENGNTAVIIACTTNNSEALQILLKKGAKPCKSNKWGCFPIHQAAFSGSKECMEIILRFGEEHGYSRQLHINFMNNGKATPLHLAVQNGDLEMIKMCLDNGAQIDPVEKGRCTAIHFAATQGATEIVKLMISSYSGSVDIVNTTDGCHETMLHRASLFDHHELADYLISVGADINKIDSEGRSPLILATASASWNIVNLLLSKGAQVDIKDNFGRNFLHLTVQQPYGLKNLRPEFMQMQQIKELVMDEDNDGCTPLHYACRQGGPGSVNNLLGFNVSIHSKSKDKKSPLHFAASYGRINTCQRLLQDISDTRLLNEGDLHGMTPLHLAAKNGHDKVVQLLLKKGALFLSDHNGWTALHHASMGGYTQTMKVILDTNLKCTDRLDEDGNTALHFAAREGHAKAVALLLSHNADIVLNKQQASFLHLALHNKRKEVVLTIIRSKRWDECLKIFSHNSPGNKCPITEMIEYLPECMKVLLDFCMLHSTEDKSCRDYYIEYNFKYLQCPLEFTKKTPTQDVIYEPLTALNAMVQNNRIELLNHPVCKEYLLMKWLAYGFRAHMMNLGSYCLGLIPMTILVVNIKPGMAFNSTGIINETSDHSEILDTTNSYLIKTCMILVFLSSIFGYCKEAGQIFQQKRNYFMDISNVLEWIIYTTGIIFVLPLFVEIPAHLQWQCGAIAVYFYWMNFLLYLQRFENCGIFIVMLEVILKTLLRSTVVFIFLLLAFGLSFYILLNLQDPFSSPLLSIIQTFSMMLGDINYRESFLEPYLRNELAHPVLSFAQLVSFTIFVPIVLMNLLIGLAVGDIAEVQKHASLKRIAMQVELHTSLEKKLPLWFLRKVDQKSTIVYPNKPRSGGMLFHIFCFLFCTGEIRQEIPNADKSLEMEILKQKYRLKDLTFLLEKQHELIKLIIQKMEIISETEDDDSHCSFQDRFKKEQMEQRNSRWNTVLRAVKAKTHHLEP

Turning to `CC(=O)Cn1c(=O)c2c(ncn2[C@@H](C)C(=O)Nc2cccc(-c3cnc(C)c(C(F)(F)F)c3)n2)n(C)c1=O` [Compound 97, (S)-2-(3-methyl-2,6-dioxo-1-(2-oxopropyl)-2,3-dihydro-1H-purin-7(6H)-yl)-N-(6′-methyl-5′-(trifluoromethyl)-[2,3′-bipyridin]-6-yl)propanamide], the IC50 at human TRPA1 is 5 nM. For the same molecule, the “Duration (0-2 Minutes) Average” value in assay [1] (setting [3]) came out at 69.3 s; in assay [1] (setting [4]), 78.5 s; in assay [1] (setting [5]) it was 56.8 s. Further, the “Duration (0-5 Minutes) Average” value in assay [1] (setting [3]) was determined as 162.4 s; in assay [1] (setting [4]), 175.3 s; in assay [1] (setting [5]) it was 185.4 s. Besides, the “Average PWL Post-Treatment” value is 194.7 in assay [2] (0.3 mg/kg PO), 262.7 in assay [2] (1 mg/kg PO) and 260.8 in assay [2] (3 mg/kg PO). Besides, the “PWL Change” value in assay [2] (0.3 mg/kg PO) is given as 77.3 s; in assay [2] (1 mg/kg PO), 149.8 s; in assay [2] (3 mg/kg PO), 157.3 s. Moreover, the “Average PWL Post-CFA” value in assay [2] (group 0.3 mg/kg PO) is 117.3; in assay [2] (group 1 mg/kg PO) it was 112.9; in assay [2] (group 3 mg/kg PO), 103.5.
On to `Cc1noc(Cn2c(=O)c3c(ncn3[C@@H](C)C(=O)Nc3cccc(-c4cnc(C(F)(F)F)nc4)n3)n(C)c2=O)n1` [Compound 104, (S)-2-(3-methyl-1-((3-methyl-1,2,4-oxadiazol-5-yl)methyl)-2,6-dioxo-2,3-dihydro-1H-purin-7(6H)-yl)-N-(6-(2-(trifluoromethyl)pyrimidin-5-yl)pyridin-2-yl)propanamide], for which the half-inhibitory concentration (IC50) at human TRPA1 came to 15 nM. In addition, the results for the “Duration (0-2 Minutes) Average” value in assay [1] (setting [3]), in assay [1] (setting [4]) and in assay [1] (setting [5]) were 98.5 s, 70.9 s and 56.6 s, respectively. Besides, the results for the “Duration (0-5 Minutes) Average” value in assay [1] (setting [3]), in assay [1] (setting [4]) and in assay [1] (setting [5]) were 167.9 s, 140.0 s and 128.9 s, respectively. In addition, the “Average PWL Post-Treatment” value in assay [2] (0.3 mg/kg PO) is listed as 190.0; in assay [2] (1 mg/kg PO), 295.1; in assay [2] (3 mg/kg PO), 281.7. Further, the “PWL Change” value came to 84.9 s in assay [2] (0.3 mg/kg PO), 190.9 s in assay [2] (1 mg/kg PO) and 176.8 s in assay [2] (3 mg/kg PO). Further, the “Average PWL Post-CFA” value in assay [2] (group 0.3 mg/kg PO) is recorded as 105.1; in assay [2] (group 1 mg/kg PO), 104.2; in assay [2] (group 3 mg/kg PO), 104.9.

A word on the IC50: it is the concentration needed to halve the response being measured.
